The results in this text go back to patent US6495675B1, “Pharmaceutical composition for treating or preventing influenza, and novel capped oligonucleotide” (Chiba Institute of Technology, priority 1997, dated 2002).

Where two headings read alike, the source gives them in different places. Strand notation (5' to 3'): a small letter for the sugar, then the base; units joined by * are phosphorothioate-linked, units joined directly phosphodiester-linked; [ ] holds rarer units or linkages, { } end groups; capitals alone tell only the bases. {m7GpppGm} = cap: 7-methylguanosine 5'-5' triphosphate-linked to 2'-O-methylguanosine; {m7GpppG} = cap: 7-methylguanosine 5'-5' triphosphate-linked to guanosine; r = 2'-OH (RNA)

In this data set the test system is CAT protein expression in 76 cells expressing RNA polymerases (PB1, PB2, and PA) and NP protein of influenza A virus (A/PR/8/34). In kind it is cell-based.

For “m^7GpppGmAAUACUCAAACU ({m7GpppGm}-rArArUrArCrUrCrArArArCrU) [Gm13, reference compound]”, the “inhibition of CAT protein expression (in words)” value (from here on “inhibition”) runs as follows: (concentration not specified) “weak inhibition”; (high dose (0.3 μM)) “little inhibition”.

As to “m^7GpppG AAUACUC ({m7GpppG}-rArArUrArCrUrC) [G8]”, the “inhibition” value (concentration not specified) is “significant inhibition”.

For “m^7GpppGmAAUACUC ({m7GpppGm}-rArArUrArCrUrC) [Gm8]”, for the setting “concentration not specified”, the “inhibition” value was “significant inhibition”.
